Measurements: patent US20060035966A1, “Irreversible selective androgen receptor modulators and methods of use thereof” (priority 2002, published 2006)
Read-outs that look alike come from different tables or passages of the source.

Legend:
[1] = tested on: DU 145 prostate cancer cell line; experiment: Cytotoxicity, SRB assay, DU 145; type: cell-based, human; conditions: Homo sapiens, read-out: IC50 DU 145
Description: (§1) The SRB Assay was used to determine cell number during cytotoxocity experiments. The following protocol was used: • 1. […] Experimental cultures were cultured in 96-well microtiter plates (200 uL growth medium per well; 1,000-200,000 cells per well). • 3. Cultures were fixed with 50 uL 50% TCA (4° C.). (see cell fixation protocol for details). • 4. Fixed cells were stained with 50 uL 0.4% (wt/vol) SRB in 1% acetic acid for 10 minutes. • 5. SRB was removed and the cultures were quickly* rinsed 5 times with 1% acetic acid to remove unbound dye.** • 6. Cultures were air-dried overnight until there is no visible moisture. • 7. […] Absorbance was read at 540 nm. • * quickly performing rinsing process is to prevent desorption of protein-bound SRB • ** completely remove residual wash solution by sharply flicking plates over sink. Fixation of Cells Attached to the Plastic Substratum
(§2) The following protocol was used for fixing cells: • a. 50 uL of 50% TCA (4° C.) were gently layered on the top of growth medium in each well to make a final TCA concentration of 10%. • b. Cultures were incubated at 4° C. for 1 hour. • c. Cultures were washed 5 times with tap water to remove TCA, growth medium, low-molecular-weight metabolites, and serum protein. • d. Plates were air-dried until there was no visible moisture.

[2] = tested on: PC-3 bone metastatic prostate cancer cell line; experiment: Cytotoxicity, SRB assay, PC-3; type: cell-based, human; conditions: Homo sapiens, read-out: IC50 PC-3
Description: PPC-1, LNCaP, TSU, PC-3, and DU145 were grown in PRMI-1640 medium containing 2 mM L-glutamine supplemented with 10% fetal bovine serum (FBS). Cells were maintained in a 5% CO2/95% air humidified atomosphere at 37° C.
(§3) The SRB Assay was used to determine cell number during cytotoxocity experiments. The following protocol was used: • 1. Cells were detached with 0.25% trypsin. • 2. Experimental cultures were cultured in 96-well microtiter plates (200 uL growth medium per well; 1,000-200,000 cells per well). • 3. Cultures were fixed with 50 uL 50% TCA (4° C.). (see cell fixation protocol for details). • 4. Fixed cells were stained with 50 uL 0.4% (wt/vol) SRB in 1% acetic acid for 10 minutes. • 5. SRB was removed and the cultures were quickly* rinsed 5 times with 1% acetic acid to remove unbound dye.** • 6. Cultures were air-dried overnight until there is no visible moisture. • 7. The cellular protein-bound SRB was dissolved with 200 uL unbuffered Tris base (10 mM, pH 10.5) for 30 minutes on a rocking platform shaker. • 8. Absorbance was read at 540 nm. • * quickly performing rinsing process is to prevent desorption of protein-bound SRB • ** completely remove residual wash solution by sharply flicking plates over sink. Fixation of Cells Attached to the Plastic Substratum
as §2

[3] = tested on: TSU prostate cancer cell line; experiment: Cytotoxicity, SRB assay, TSU; type: cell-based, human; conditions: Homo sapiens, read-out: IC50 TSU
Description: as §1, §2

[4] = tested on: PPC-1 prostate cancer cell line; experiment: Cytotoxicity, SRB assay, PPC-1; type: cell-based, human; conditions: Homo sapiens, read-out: IC50 PPC-1
Description: as §1, §2

[5] = tested on: AR-expressing LNCaP prostate cancer cell line; experiment: Cytotoxicity, SRB assay, LNCaP; type: cell-based, human; conditions: Homo sapiens, LNCaP, read-out: IC50 LNCaP
Description: as §1, §2

[6] = tested on: TCCSUP bladder cancer cell line; experiment: Cytotoxicity, SRB assay, TCCSUP; type: cell-based, human; conditions: Homo sapiens, TCC-SUP, read-out: IC50 TCCSUP
Description: as §1, §2

[7] = tested on: HT-29 colorectal adenocarcinoma cell line; experiment: Cytotoxicity, SRB assay, HT-29; type: cell-based, human; conditions: Homo sapiens, read-out: IC50 HT-29
Description: as §1, §2

CV-1 control cell line = experiment: Cytotoxicity, SRB assay, CV-1 control; type: cell-based, African green monkey; conditions: Chlorocebus sabaeus, read-out: IC50 CV-1
Description: as §3, §2

[8] = tested on: MCF-7 breast adenocarcinoma cell line; experiment: Cytotoxicity, SRB assay, MCF-7; type: cell-based; conditions: Homo sapiens, Example 4
Description: as §3, §2

LNCaP cells = experiment: Induction of apoptosis, LNCaP; type: cell-based, human
Description: (§4) The ability of DJ 1-31, DJ 1-29, S-NTBA and Compound V to induce apoptosis in different prostate cancer cell lines (DU 145, PC-3, TSU, PPC-1 and LNCaP), in other cancer cell lines (TCCSUP, HT-29 and MCF-7) and in a control cell line (CV-1) was determined and the results are shown in Table 6.

DU 145 cells = experiment: Induction of apoptosis, DU 145; type: cell-based, human
Description: as §4

PC-3 cells = experiment: Induction of apoptosis, PC-3; type: cell-based, human
Description: as §4

PPC-1 cells = experiment: Induction of apoptosis, PPC-1; type: cell-based, human
Description: as §4

TSU cells = experiment: Induction of apoptosis, TSU; type: cell-based, human
Description: as §4

HT-29 cells = experiment: Induction of apoptosis, HT-29; type: cell-based, human
Description: as §4

TCCSUP cells = experiment: Induction of apoptosis, TCCSUP; type: cell-based, human
Description: as §4

MCF-7 cells = experiment: Induction of apoptosis, MCF-7; type: cell-based
Description: as §4

CV-1 cells = experiment: Induction of apoptosis, CV-1; type: cell-based, African green monkey
Description: as §4

[9] = MCF7, 24 h, drug incubation time 1 day
[10] = MCF7, 96 h, drug incubation time 4 day

| SMILES | IC50 ([1]; DU-145, 24 h) | IC50 ([1]; DU-145, 96 h) | IC50 ([2]; 24 h) | IC50 ([2]; 96 h) | IC50 ([3]; 24 h) | IC50 ([3]; 96 h) | IC50 ([4]; PPC-1, 24 h) | IC50 ([4]; PPC-1, 96 h) | IC50 ([5]; 24 h) | IC50 ([5]; 96 h) | IC50 ([6]; 24 h) | IC50 ([6]; 96 h) | IC50 ([7]; HT-29, 24 h) | IC50 ([7]; HT-29, 96 h) | IC50 (CV-1 control cell line; 24 h) | IC50 (CV-1 control cell line; 96 h) | IC50 [8, 9] | IC50 [8, 10] | Enrichment factor LNCaP (LNCaP cells) | Enrichment factor DU 145 (DU 145 cells) | further results |
| --- | --- | --- | --- | --- | --- | --- | --- | --- | --- | --- | --- | --- | --- | --- | --- | --- | --- | --- | --- | --- | --- |
| C[C@](O)(COc1ccc(NC(=O)CBr)cc1)C(=O)Nc1ccc([N+](=O)[O-])c(C(F)(F)F)c1 [DJ 1-29] | 400 ± 100 nM | 400 ± 100 nM | 2300 ± 100 nM | 2400 ± 400 nM | 1300 ± 100 nM | 1000 ± 100 nM | 900 ± 100 nM | 1300 ± 100 nM | 1100 ± 400 nM | 1800 ± 200 nM | 2600 ± 400 nM | 2500 ± 400 nM | 3600 ± 400 nM | 4400 ± 200 nM | 6800 ± 500 nM | 7300 ± 200 nM | 11900 ± 300 nM | 12900 ± 700 nM | 16.571 | 18.643 | Enrichment factor PC-3 (PC-3 cells): 0.531; Enrichment factor PPC-1 (PPC-1 cells): 1.146; Enrichment factor TSU (TSU cells): 1.008; Enrichment factor HT-29 (HT-29 cells): 1.667; Enrichment factor TCCSUP (TCCSUP cells): 0.000; Enrichment factor MCF-7 (MCF-7 cells): 1.617; Enrichment factor CV-1 (CV-1 cells): 0.786 |
| C[C@](O)(COc1ccc(NC(=O)CCl)cc1)C(=O)Nc1ccc([N+](=O)[O-])c(C(F)(F)F)c1 [DJ 1-31] | 1000 ± 200 nM | 700 ± 100 nM | 5400 ± 800 nM | 5300 ± 800 nM | 1300 ± 100 nM | 1100 ± 100 nM | 1900 ± 100 nM | 1900 ± 100 nM | 2900 ± 1200 nM | 3300 ± 400 nM | 2100 ± 300 nM | 2100 ± 300 nM | 5400 ± 100 nM | 3700 ± 700 nM | 5800 ± 300 nM | 5300 ± 200 nM | 15800 ± 2700 nM | 14000 ± 1100 nM | 1.374 | 2.500 | Enrichment factor PC-3 (PC-3 cells): 0.594; Enrichment factor PPC-1 (PPC-1 cells): 1.312; Enrichment factor TSU (TSU cells): 0.848; Enrichment factor HT-29 (HT-29 cells): 1.205; Enrichment factor TCCSUP (TCCSUP cells): 0.471; Enrichment factor MCF-7 (MCF-7 cells): 0.938; Enrichment factor CV-1 (CV-1 cells): 0.702 |
